Test results: ChEMBL document CHEMBL1201862, “PubChem BioAssay data set” (2004)
Values belong to the molecule of their own block, whether it stands above or below them. The source made the active and inactive calls.

Assays:
[1] = biological target: T1, Estrogen receptor (Homo sapiens, UniProt P03372);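 also: potency for inhibiting coactivator peptide recruitment to the receptor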
T1 sequence (P03372 whole entry): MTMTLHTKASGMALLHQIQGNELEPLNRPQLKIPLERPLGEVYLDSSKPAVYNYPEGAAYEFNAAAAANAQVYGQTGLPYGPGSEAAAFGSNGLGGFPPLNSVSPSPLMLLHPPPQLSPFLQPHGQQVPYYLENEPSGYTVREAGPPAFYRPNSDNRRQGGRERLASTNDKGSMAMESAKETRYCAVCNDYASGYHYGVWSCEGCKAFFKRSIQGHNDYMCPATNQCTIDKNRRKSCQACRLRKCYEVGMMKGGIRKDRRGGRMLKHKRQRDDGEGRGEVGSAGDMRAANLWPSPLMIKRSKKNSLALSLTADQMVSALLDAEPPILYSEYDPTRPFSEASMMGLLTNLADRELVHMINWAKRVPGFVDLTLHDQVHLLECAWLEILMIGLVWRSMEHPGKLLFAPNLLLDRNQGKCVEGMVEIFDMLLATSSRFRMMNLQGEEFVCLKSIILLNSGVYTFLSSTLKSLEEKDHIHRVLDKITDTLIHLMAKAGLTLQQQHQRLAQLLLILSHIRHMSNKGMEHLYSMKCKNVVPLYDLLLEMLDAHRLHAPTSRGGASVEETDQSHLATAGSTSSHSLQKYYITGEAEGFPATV

[2] = viability loss in THP-1 monocytes – THP-1 cells, cytotoxicity control for Vif-APOBEC3G degradation inhibitor project, dose response (AID 1117359); type: functional; details: THP-1
[3] = biological target: Estrogen receptor beta (Homo sapiens, UniProt Q92731);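 also: recombinant ER-beta bound to coactivator SRC1 peptide in presence of estradiol agonist; inhibitors block coactivator peptide binding and lower the FRET signal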
Estrogen receptor beta, sequence (Q92731 whole entry): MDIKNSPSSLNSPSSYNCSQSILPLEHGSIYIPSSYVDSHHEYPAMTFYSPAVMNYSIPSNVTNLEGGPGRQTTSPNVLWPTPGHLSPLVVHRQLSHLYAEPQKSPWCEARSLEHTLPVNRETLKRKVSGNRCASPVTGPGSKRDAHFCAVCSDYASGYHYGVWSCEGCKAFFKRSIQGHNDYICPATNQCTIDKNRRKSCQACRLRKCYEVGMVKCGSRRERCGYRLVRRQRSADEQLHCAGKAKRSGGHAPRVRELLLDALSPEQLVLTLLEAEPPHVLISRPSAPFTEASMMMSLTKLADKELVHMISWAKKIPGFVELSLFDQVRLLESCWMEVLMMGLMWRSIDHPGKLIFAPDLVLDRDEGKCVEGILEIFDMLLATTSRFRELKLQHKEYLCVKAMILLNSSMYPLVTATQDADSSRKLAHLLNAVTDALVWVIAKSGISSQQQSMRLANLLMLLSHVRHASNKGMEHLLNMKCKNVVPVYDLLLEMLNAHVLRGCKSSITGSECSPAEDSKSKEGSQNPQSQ

[4] = HIV-1 Vif–A3G interaction blockers – biochemical, TR-FRET, GST-Vif 1-94, biotin-A3G peptide, dose response retest, primary screen (AID 1117319); type: functional;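 also: TR-FRET signal of purified GST-Vif binding a biotinylated A3G peptide; inhibitors lower the FRET signal by blocking Vif and A3G binding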
[5] = biological target: T2, Voltage-gated N-type calcium channel alpha-1B subunit/Amyloid beta A4 precursor protein-binding family A member 1 (Homo sapiens, UniProt Q00975+Q02410); type: protein assay
T2 sequence (Q00975 whole entry, the tested form may be a part): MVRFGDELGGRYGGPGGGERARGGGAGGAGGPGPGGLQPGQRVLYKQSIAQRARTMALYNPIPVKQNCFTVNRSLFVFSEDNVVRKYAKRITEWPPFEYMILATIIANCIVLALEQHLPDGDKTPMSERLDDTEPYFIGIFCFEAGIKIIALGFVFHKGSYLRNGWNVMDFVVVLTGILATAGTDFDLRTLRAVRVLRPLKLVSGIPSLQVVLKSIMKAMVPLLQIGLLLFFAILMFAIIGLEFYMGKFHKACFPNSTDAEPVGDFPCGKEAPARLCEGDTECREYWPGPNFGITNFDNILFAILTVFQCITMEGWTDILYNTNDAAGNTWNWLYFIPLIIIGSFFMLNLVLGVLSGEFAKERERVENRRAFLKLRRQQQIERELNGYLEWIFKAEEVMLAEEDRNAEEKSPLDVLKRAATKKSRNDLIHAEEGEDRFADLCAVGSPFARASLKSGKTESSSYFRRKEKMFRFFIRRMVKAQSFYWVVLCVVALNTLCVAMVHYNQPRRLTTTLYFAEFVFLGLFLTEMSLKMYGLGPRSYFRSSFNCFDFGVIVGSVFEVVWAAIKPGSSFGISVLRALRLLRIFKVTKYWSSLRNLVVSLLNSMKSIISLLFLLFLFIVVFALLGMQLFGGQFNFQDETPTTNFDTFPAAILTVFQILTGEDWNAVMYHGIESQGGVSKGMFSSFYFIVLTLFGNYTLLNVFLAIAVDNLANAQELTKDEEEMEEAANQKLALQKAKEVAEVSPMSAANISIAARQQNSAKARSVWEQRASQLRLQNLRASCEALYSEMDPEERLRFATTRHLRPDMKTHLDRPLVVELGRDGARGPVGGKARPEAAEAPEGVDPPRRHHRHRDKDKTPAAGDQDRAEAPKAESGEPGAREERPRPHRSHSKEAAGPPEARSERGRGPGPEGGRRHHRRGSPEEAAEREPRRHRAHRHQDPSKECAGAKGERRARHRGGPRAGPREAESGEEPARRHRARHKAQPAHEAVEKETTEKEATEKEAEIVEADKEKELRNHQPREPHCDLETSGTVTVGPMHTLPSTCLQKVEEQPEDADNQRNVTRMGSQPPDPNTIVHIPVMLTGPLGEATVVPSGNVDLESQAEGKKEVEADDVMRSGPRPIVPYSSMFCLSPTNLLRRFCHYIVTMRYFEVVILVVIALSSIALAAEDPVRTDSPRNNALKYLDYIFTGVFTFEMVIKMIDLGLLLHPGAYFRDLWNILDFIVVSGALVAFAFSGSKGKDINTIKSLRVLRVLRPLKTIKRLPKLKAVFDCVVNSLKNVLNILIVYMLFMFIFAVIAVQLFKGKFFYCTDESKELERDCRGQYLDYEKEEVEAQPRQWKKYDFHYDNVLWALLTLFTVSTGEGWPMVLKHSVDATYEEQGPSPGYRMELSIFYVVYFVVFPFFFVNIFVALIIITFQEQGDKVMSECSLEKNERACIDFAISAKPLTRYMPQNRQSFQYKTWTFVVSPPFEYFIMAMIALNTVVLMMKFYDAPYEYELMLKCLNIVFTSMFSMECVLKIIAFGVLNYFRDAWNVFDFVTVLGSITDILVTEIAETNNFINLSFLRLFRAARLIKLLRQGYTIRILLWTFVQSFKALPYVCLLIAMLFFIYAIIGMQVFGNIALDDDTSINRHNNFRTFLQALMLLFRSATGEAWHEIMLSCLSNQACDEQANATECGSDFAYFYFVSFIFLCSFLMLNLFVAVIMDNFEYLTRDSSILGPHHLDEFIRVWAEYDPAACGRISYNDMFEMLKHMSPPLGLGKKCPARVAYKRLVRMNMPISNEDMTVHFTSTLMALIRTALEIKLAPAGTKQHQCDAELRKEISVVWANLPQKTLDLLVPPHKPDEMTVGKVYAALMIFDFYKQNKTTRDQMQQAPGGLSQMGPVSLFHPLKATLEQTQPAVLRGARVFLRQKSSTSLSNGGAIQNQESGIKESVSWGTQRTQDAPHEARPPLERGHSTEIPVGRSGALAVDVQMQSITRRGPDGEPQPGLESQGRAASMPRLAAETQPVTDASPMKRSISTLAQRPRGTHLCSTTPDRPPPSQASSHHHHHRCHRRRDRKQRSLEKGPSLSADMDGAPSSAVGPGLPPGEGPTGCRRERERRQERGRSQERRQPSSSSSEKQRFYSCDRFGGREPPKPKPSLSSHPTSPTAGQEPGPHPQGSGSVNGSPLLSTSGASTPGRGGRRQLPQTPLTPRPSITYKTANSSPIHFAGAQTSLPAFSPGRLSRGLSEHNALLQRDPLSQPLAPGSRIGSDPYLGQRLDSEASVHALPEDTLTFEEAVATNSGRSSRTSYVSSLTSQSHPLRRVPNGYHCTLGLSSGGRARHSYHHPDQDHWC
T2 sequence (Q02410 whole entry, the tested form may be a part): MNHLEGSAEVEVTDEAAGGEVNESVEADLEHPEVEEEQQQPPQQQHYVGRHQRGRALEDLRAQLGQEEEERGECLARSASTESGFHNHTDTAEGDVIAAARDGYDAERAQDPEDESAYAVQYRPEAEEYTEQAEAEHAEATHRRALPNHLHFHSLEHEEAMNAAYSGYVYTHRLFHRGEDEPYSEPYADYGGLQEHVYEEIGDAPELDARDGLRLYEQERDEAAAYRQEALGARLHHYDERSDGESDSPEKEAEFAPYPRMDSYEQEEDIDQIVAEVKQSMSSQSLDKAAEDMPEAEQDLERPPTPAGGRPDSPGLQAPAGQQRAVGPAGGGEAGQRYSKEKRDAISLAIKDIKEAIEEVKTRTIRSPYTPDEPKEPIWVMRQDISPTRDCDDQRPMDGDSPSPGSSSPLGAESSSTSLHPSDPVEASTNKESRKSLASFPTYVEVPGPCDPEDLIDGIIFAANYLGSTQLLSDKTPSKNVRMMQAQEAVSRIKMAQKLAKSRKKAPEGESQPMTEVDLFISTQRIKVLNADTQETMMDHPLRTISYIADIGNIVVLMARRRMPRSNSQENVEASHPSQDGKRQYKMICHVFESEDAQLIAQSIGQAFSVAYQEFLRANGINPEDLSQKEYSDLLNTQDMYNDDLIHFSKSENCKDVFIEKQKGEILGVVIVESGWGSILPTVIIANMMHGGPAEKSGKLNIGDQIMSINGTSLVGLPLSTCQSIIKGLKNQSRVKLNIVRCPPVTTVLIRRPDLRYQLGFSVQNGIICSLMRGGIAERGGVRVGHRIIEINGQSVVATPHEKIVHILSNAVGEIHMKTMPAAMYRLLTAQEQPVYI

[6] = biological target: T3, Fibrinogen beta chain (Homo sapiens, UniProt P02675); test: Fluorescence polarization-based biochemical high throughput dose response assay to identify inhibitors that disrupt the binding of a cyclic peptide (Tn7) to the fibrin proteolytic product D-Dimer and fragment E complex [DD(E )].
T3 sequence (P02675 whole entry, the tested form may be a part): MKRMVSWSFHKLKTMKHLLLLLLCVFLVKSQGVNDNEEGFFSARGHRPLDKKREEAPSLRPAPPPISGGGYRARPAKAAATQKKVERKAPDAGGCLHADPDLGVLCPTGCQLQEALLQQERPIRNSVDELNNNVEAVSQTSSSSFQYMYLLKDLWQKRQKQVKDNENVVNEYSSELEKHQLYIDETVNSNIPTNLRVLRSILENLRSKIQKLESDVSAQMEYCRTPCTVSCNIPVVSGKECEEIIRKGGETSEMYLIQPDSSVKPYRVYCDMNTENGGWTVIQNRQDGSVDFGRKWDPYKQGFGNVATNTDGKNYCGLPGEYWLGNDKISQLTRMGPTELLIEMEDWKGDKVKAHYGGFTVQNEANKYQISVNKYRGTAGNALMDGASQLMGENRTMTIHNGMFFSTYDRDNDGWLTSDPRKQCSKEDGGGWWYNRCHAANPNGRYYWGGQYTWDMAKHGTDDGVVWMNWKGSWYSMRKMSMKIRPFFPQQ

[7] = biological target: 26S proteasome non-ATPase regulatory subunit 14 (Homo sapiens, UniProt O00487); test: inhibition of proteasome subunit RPN11 – biochemical, fluorescence polarization, uHTS hits, confirmation (AID 602368); type: functional
26S proteasome non-ATPase regulatory subunit 14, sequence (O00487 whole entry): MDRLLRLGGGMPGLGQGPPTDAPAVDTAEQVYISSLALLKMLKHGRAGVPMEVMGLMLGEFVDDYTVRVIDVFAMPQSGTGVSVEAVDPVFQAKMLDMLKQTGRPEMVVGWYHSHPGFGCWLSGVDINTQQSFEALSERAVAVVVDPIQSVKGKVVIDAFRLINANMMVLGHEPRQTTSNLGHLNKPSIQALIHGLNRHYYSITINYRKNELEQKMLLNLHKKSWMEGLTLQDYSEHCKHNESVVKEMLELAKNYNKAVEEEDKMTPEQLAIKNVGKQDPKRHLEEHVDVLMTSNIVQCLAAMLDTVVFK

[8] = biological target: Prothrombin (Bos taurus, UniProt P00735); test: thrombin protease inhibitors – biochemical, fluorescence polarization, uHTS hits, dose response (AID 602369); type: functional
[9] = biological target: Cytochrome P450 3A4 (Homo sapiens, UniProt P08684);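 also: CYP3A4 tested as one member of a cytochrome P450 panel screen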
[10] = biological target: T3, Fibrinogen beta chain; test: Fluorescence polarization-based biochemical high throughput dose response assay to identify inhibitors that disrupt the binding of a cyclic peptide (Tn6) to the fibrin proteolytic product D-Dimer and fragment E complex [DD(E )].
[11] = biological target: T2, Voltage-gated N-type calcium channel alpha-1B subunit/Amyloid beta A4 precursor protein-binding family A member 1; type: protein assay; remark: listed apart in the source
[12] = biological target: 72 kDa type IV collagenase (Homo sapiens, UniProt P08253); test: Dose Response validation of uHTS RPN11 inhibitor hits using a MMP-2 Fluorescence assay.; type: functional
[13] = biological target: Cytochrome P450 2C19 (Homo sapiens, UniProt P33261); test: Cytochrome panel assay with activity outcomes. Panel member name: p450-cyp2c19 Compounds with AC50 equal or less than 10 uM are considered active; type: functional; details: read-out: AC50
[14] = inhibitors acting on PAX2 in cells – cell-based, plate reader, dry powder samples, selectivity assay for PAX8 inhibitor project, dose response (AID 743048); type: functional;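 also: HEK293 cells carrying a WT1 promoter luciferase reporter driven by expressed Pax2; potency is for inhibition of Pax2 driven reporter signal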
[15] = OV-90 cell viability loss – plate reader, dry powder, SA8, PAX8 inhibitor project, dose response (AID 743149); type: functional, cell-based
[16] = PAX8-dependent cell viability loss – plate reader, dry powder, dose response (AID 743049); type: functional, cell-based
[17] = biological target: Paired box protein Pax-8 (Homo sapiens, UniProt Q06710); test: PAX8 transcriptional activity inhibition in RMG-I – RMG-I cells, luciferase, cherry-pick, dose response (AID 687027); type: functional, cell-based;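 also: luciferase reporter driven by Pax8 target thyroperoxidase promoter measured by SteadyGlo luminescence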
Paired box protein Pax-8, sequence (Q06710 whole entry): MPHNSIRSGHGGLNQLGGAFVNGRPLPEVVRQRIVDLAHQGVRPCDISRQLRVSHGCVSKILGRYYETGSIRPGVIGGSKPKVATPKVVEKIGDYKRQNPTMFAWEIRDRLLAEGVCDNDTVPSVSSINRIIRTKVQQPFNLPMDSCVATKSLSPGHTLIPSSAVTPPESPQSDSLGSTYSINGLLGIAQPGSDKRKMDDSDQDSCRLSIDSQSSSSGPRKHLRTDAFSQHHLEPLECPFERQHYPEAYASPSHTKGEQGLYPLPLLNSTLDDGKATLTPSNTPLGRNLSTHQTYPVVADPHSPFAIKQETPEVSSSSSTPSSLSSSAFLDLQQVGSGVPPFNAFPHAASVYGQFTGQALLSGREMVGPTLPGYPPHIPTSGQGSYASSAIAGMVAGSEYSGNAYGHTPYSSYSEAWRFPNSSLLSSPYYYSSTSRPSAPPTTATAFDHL

[18] = OVCAR-3 cell viability loss – plate reader, dry powder samples, PAX8 inhibitor project, dose response (AID 743044); type: functional, cell-based
[19] = PAX5 cellular inhibition readout – cell-based, plate reader, dry powder samples, selectivity assay for PAX8 inhibitor project, dose response (AID 743047); type: functional;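 also: HEK293 cells carrying a Pax5 driven CD19 promoter luciferase reporter; potency of inhibitors that lower reporter luminescence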
[20] = biological target: T4, Protein skinhead-1 (Caenorhabditis elegans, UniProt P34707); type: functional
T4 sequence (P34707 whole entry): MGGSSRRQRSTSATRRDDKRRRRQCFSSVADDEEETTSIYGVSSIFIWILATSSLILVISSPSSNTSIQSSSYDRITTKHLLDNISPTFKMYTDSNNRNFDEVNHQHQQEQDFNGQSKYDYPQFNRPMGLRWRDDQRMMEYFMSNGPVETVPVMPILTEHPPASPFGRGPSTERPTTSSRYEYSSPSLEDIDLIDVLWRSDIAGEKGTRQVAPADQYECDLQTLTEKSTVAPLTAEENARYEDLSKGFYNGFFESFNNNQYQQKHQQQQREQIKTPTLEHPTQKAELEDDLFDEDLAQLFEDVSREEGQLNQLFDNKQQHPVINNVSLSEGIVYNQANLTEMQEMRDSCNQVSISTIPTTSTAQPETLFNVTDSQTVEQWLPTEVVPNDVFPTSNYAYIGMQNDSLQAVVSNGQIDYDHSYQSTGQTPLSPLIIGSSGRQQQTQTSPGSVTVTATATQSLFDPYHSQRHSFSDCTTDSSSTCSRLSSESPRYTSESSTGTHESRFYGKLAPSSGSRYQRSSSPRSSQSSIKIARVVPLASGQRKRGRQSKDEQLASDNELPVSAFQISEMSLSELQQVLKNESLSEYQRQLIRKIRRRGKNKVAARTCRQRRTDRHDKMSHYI

[21] = biological target: Heat shock protein HSP 90-alpha (Homo sapiens, UniProt P07900); test: Luminescence-based dose response biochemical high throughput screening assay for inhibitors of the Heat Shock Protein 90 (HSP90). [Related pubchem assays: 1831 (Summary AID.), 1846 (Confirmation screen.), 1789 (Primary screen.)]
[22] = viability loss in Vero cells – cytotoxicity control for Vif-APOBEC3G degradation inhibitor project, dose response (AID 1117358); type: functional; details: Vero
[23] = Trypanosoma cruzi growth suppression in host cells – NIH3T3 host cells, beta-gal luminescence, confirmation (AID 2044); type: functional, cell-based;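 also: intracellular parasites grown in NIH/3T3 mouse fibroblasts as host cells; luminescent beta-galactosidase reporter signal from transgenic T. cruzi replicating inside host cells; inhibitors lower the luminescence signal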
[24] = NIH3T3 cell viability loss – ATP luminescence, mouse fibroblasts, counter-screen, dose response (AID 2010); type: functional, cell-based;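 also: cells exposed to compound for about 90 hours before reading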
[25] = system: Vero; test: viability of Vero cells under compound – cytotoxicity control for flavivirus capping enzyme inhibitors (AID 588742); type: functional; details: Chlorocebus sabaeus
[26] = biological target: Protein Tat (Human immunodeficiency virus type 1 group M subtype B (isolate HXB2)(HIV-1), UniProt P04608); type: functional;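 also: tat binding to TAR RNA read out by fluorescence polarization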
Protein Tat, sequence (P04608 whole entry): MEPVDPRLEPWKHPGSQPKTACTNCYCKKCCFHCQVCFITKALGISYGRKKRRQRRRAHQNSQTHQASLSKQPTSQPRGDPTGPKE

[27] = IC50 of insulin release inhibition, rat insulinoma INS-1E line, 5 mM glucose, cell-based (AID 1117331); type: functional
[28] = cytotoxicity toward HT-29 cells – cell-based, CellTiter-Glo luminescence, IC50, dose response (AID 1117330); type: functional
[29] = RKO cell viability reduction, dose response, CellTiter-Glo luminescence (AID 1117322); type: functional
[30] = cytotoxicity toward Colo320 cells – cell-based, CellTiter-Glo luminescence, IC50, dose response (AID 1117334); type: functional; details: COLO 320
[31] = Reduced DLD-1 viability, concentration-response, CellTiter-Glo luminescence (AID 1117352); type: functional
[32] = HCT116 cell viability decrease, GSK3B pretreatment – CellTiter-Glo, IC50, dose response (AID 1117339); type: functional; details: HCT-116
[33] = SNU-C1 cell viability reduction, dose response, CellTiter-Glo luminescence (AID 1117323); type: functional, cell-based
[34] = cytotoxicity toward HCT116 cells – cell-based, CellTiter-Glo luminescence, IC50, dose response (AID 1117332); type: functional; details: HCT-116
[35] = CellTiter-Glo luminescence survival assay, SW480 colon tumor line, concentration-response curve, half-maximal inhibitory concentration (AID 1117338); type: functional

IC50 [1]: > 50 µM (not active) | IC50 [3]: > 50 µM (not active) | IC50 [4]: > 53.2 µM (active)
Structure (SMILES): CSc1ccc(C2C(C#N)=C(N)Oc3c2ccc(=O)c2c(C)oc(C)c32)cc1 (stereo not given)
CC50 [2]: > 40 µM (active)

IC50 [20]: 13.7 µM (active) | IC50 [21]: 0.235 µM (active)
Structure (SMILES): Cc1oc(-c2ccc(-c3ccccc3)cc2)nc1CN(C)C1CCOC1 (stereo not given)

IC50 [26]: 22.5 µM (inconclusive)
Structure (SMILES): COC(=O)C1=C(O)/C(=C\c2ccc(CNC(=O)C(=O)Nc3ccc(C)cc3)o2)N=C1C
CC50 [25]: 19 µM (active)

The remaining lines, values behind:

Structure (SMILES): NS(=O)(=O)c1ccc(NS(=O)(=O)c2ccc(NC(=O)c3ccc(-c4ccccc4)cc3)cc2)cc1
IC50 [5]: > 50 µM (inactive) | IC50 [6]: > 83.3 µM (inactive) | IC50 [7]: 6.71 µM (active) | IC50 [8]: 33.4 µM (active) | AC50 [9]: inconclusive | IC50 [10]: 14.3 µM (inactive) | IC50 [11]: 12.1 µM (active) | IC50 [12]: > 100 µM (inactive) | AC50 [13]: 0.562 µM (inconclusive)

Structure (SMILES): CC(=O)N1CCOc2ccc(S(=O)(=O)N3CCN(c4cccc(C(F)(F)F)c4)CC3)cc21
AC50 [14]: 30.9 µM (active) | AC50 [15]: 63 µM (active) | AC50 [16]: 94.5 µM (active) | AC50 [17]: 2.36 µM (active) | AC50 [18]: 17.9 µM (active) | AC50 [19]: 45.3 µM (active)

Structure (SMILES): CN(C)S(=O)(=O)c1ccc(NC(=O)N2CCN(c3cccc(C(F)(F)F)c3)CC2)cc1
CC50 [22]: > 40 µM (active) | EC50 [23]: 3.61 µM (active) | EC50 [24]: > 60 µM (not active)

Structure (SMILES): CN1CCN(CCC(=O)N2c3ccccc3Sc3ccc(C(F)(F)F)cc32)CC1 [FTORMETAZINE]
IC50 [27]: > 11.1 µM (inactive)

Structure (SMILES): COc1ccc2c(c1)c1c3n2CCN(C)C3=NCC1 [METRALINDOLE]
IC50 [28]: > 20 µM (inactive) | IC50 [29]: > 20 µM (inactive) | IC50 [30]: > 20 µM (inactive) | IC50 [31]: > 20 µM (inactive) | IC50 [32]: > 20 µM (inactive) | IC50 [33]: > 20 µM (inactive) | IC50 [34]: > 20 µM (inactive) | IC50 [35]: > 20 µM (inactive)
